Laboratory results reported in ChEMBL document CHEMBL4420076, “Amylin and calcitonin receptor agonist” (2017).
Numbered stars: 1 amine (or outer) side, 2 acyl side, 3 side chain; on linkers, the order of the positions; unused ones are H or OH. Side chains are listed from the residue outwards. Peptide text beside a SMILES is read from it. * marks the point of attachment. C20 diacid = O=C(O)CCCCCCCCCCCCCCCCCCC(=O)*; γGlu = O=C(O)[C@H](CCC(=O)[*:2])N[*:1]

What was measured:
[1] = target: T1, Calcitonin receptor (Homo sapiens, UniProt P30988); test: Agonist activity at human calcitonin receptor expressed in BHK570 cells assessed as increase in intracellular cAMP concentration incubated for 3 hrs in absence of albumin by CRE luciferase reporter gene assay; assay type: functional, cell-based
T1 sequence (P30988 whole entry): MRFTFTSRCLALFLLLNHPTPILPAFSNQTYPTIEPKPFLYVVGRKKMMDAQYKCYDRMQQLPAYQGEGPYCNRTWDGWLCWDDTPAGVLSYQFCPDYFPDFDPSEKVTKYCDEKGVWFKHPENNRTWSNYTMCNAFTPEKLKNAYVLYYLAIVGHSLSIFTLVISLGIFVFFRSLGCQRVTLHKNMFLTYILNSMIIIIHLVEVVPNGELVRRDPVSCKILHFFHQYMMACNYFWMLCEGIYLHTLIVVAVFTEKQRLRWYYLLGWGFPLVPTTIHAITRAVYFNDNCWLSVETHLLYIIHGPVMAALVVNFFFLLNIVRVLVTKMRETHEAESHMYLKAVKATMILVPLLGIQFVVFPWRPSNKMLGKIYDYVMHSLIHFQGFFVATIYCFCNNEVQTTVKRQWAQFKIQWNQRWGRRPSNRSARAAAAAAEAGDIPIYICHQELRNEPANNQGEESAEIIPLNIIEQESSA

[2] = target: T1, Calcitonin receptor; test: Agonist activity at human calcitonin receptor expressed in BHK570 cells assessed as increase in intracellular cAMP concentration incubated for 3 hrs in presence of 10% FBS by CRE luciferase reporter gene assay; assay type: functional, cell-based
[3] = target: T2, Amylin receptor AMY3; CALCR/RAMP3 (Rattus norvegicus, UniProt P32214+Q9JJ73); test: Displacement of [125I]-labeled rat amylin from rat amylin receptor expressed in BHK tkts13 cell membranes co-expressing RAMP3 incubated for 120 mins by scintillation proximity assay
T2 sequence (P32214 whole entry): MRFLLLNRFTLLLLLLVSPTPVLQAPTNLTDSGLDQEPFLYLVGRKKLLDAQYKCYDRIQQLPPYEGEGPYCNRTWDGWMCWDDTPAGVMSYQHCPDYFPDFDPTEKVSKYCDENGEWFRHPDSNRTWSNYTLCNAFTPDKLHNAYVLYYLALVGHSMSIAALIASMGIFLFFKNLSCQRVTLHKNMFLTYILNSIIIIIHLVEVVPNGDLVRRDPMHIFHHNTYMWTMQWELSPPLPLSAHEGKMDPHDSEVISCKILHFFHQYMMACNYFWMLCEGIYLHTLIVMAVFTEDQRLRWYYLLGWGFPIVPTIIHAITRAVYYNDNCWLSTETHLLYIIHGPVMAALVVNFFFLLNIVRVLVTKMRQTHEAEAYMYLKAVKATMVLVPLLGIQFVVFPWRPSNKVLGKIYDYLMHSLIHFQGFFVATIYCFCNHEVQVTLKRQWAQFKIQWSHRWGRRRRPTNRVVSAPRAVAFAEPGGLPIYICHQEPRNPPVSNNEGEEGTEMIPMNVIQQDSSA
T2 sequence (Q9JJ73 whole entry): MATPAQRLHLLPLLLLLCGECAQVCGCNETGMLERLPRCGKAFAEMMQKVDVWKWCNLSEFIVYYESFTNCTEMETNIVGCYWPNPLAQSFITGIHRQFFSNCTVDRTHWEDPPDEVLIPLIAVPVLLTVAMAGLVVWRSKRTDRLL

[4] = Solubility in 100 mM bistrispropane buffer at pH 6.0 incubated for 18 hrs by UPLC analysis; assay type: physicochemical
[5] = target: T1, Calcitonin receptor; test: Displacement of [125I]-labeled human calcitonin from human calcitonin receptor expressed in BHK tkts13 cell membranes incubated for 1 hr by scintillation proximity assay
[6] = target: T3, Amylin receptor AMY3; CALCR/RAMP3 (Homo sapiens, UniProt O60896+P30988); test: Agonist activity at human amylin receptor expressed in BHK570 cells co-expressing RAMP3 assessed as increase in intracellular cAMP concentration incubated for 3 hrs in presence of 10% FBS by CRE luciferase reporter gene assay; assay type: functional, cell-based
T3 sequence (P30988 whole entry): T1 sequence (P30988 whole entry)
T3 sequence (O60896 whole entry): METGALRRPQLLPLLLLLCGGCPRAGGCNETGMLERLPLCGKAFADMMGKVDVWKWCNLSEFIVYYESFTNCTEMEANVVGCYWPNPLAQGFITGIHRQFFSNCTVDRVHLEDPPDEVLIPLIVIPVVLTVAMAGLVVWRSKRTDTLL

[7] = Solubility in 100 mM bistrispropane buffer at pH 7.5 incubated for 18 hrs by UPLC analysis; assay type: physicochemical
[8] = Solubility in 100 mM glycylglycine buffer at pH 4.0 incubated for 18 hrs by UPLC analysis; assay type: physicochemical
[9] = Solubility in 100 mM bistrispropane buffer at pH 7.0 incubated for 18 hrs by UPLC analysis; assay type: physicochemical
[10] = Solubility in 100 mM glycylglycine buffer at pH 5.0 incubated for 18 hrs by UPLC analysis; assay type: physicochemical
[11] = Solubility in 100 mM glycylglycine buffer at pH 3.0 incubated for 18 hrs by UPLC analysis; assay type: physicochemical
[12] = Solubility in 100 mM bistrispropane buffer at pH 8.0 incubated for 18 hrs by UPLC analysis; assay type: physicochemical
[13] = Solubility in 100 mM bistrispropane buffer at pH 6.5 incubated for 18 hrs by UPLC analysis; assay type: physicochemical
[14] = target: T3, Amylin receptor AMY3; CALCR/RAMP3; test: Agonist activity at human amylin receptor expressed in BHK570 cells co-expressing RAMP3 assessed as increase in intracellular cAMP concentration incubated for 3 hrs in absence of albumin by CRE luciferase reporter gene assay; assay type: functional, cell-based
[15] = target: T3, Amylin receptor AMY3; CALCR/RAMP3; test: Displacement of [125I]-labeled rat amylin from human amylin receptor expressed in BHK tkts13 whole cells co-expressing RAMP3 incubated for 60 mins by scintillation proximity assay; assay type: cell-based

Compound | EC50 [1] [nM] | EC50 [2] [nM] | IC50 [3] [nM] | solubility at 18 h [4] [µM] | IC50 [5] [nM] | EC50 [6] [nM] | solubility at 18 h [7] [µM] | solubility at 18 h [8] [µM] | solubility at 18 h [9] [µM] | solubility at 18 h [10] [µM] | solubility at 18 h [11] [µM] | solubility at 18 h [12] [µM] | solubility at 18 h [13] [µM] | EC50 [14] [nM] | IC50 [15] [nM]
CC(=O)N[C@@H](C)C(=O)N[C@@H](CO)C(=O)N[C@@H](CCC(=O)O)C(=O)N[C@@H](CC(C)C)C(=O)N[C@@H](CO)C(=O)N[C@H](C(=O)N[C@@H](C)C(=O)N[C@@H](C)C(=O)N[C@@H](CC(C)C)C(=O)NCC(=O)N[C@@H](CCCNC(=N)N)C(=O)N[C@@H](CC(C)C)C(=O)N[C@@H](CO)C(=O)N[C@@H](C)C(=O)N[C@@H](CCC(=O)O)C(=O)N[C@@H](CC(C)C)C(=O)N[C@@H](Cc1cnc[nH]1)C(=O)N[C@@H](CCCCNC(=O)CC[C@H](NC(=O)CCCCCCCCCCCCCCCCCCC(=O)O)C(=O)O)C(=O)N[C@@H](CC(C)C)C(=O)N[C@@H](C)C(=O)N[C@H](C(=O)N[C@@H](CC(C)C)C(=O)N1CCC[C@H]1C(=O)N[C@@H](CCCNC(=N)N)C(=O)N[C@H](C(=O)N[C@@H](CCC(=O)O)C(=O)N[C@H](C(=O)NCC(=O)N[C@@H](CO)C(=O)NCC(=O)N[C@@H](CO)C(=O)N1CCC[C@H]1C(N)=O)[C@@H](C)O)[C@@H](C)O)[C@@H](C)O)[C@@H](C)O (Ac-ASELSTAALGRLSAELHK([γGlu-C20 diacid])LATLPRTETGSGSP-NH2) | 0.019 | 0.022 | 0.684 | ≥ 200 | 0.077 | 0.047 | ≥ 200 | ≥ 200 | ≥ 200 | ≥ 200 | ≥ 200 | ≥ 200 | ≥ 200 | 0.032 | –
CC(C)C[C@H](NC(=O)CNC(=O)[C@H](CO)NC(=O)[C@H](C)NC(=O)CC[C@H](NC(=O)CCCCCCCCCCCCCCCCCCC(=O)O)C(=O)O)C(=O)N[C@@H](CO)C(=O)N[C@H](C(=O)N[C@@H](C)C(=O)N[C@H](C(=O)N[C@@H](CC(C)C)C(=O)NCC(=O)N[C@@H](CCCNC(=N)N)C(=O)N[C@@H](CC(C)C)C(=O)N[C@@H](CO)C(=O)N[C@@H](CCC(N)=O)C(=O)N[C@@H](CCC(=O)O)C(=O)N[C@@H](CC(C)C)C(=O)N[C@@H](Cc1cnc[nH]1)C(=O)N[C@@H](CCC(=O)O)C(=O)N[C@@H](CC(C)C)C(=O)N[C@@H](CCC(N)=O)C(=O)N[C@H](C(=O)N[C@@H](Cc1ccc(O)cc1)C(=O)N1CCC[C@H]1C(=O)N1CCC[C@H]1C(=O)N[C@H](C(=O)N[C@@H](CCC(=O)O)C(=O)N[C@H](C(=O)NCC(=O)N[C@@H](CO)C(=O)NCC(=O)N[C@H](C(=O)N[C@@H](Cc1ccc(O)cc1)C(N)=O)[C@@H](C)O)[C@@H](C)O)[C@@H](C)O)[C@@H](C)O)[C@@H](C)O)[C@@H](C)O ({C20 diacid-γGlu}-ASGLSTATLGRLSQELHELQTYPPTETGSGTY-NH2) | 0.019 | 0.077 | 0.098 | ≥ 200 | 0.053 | – | ≥ 200 | – | ≥ 200 | ≥ 200 | ≥ 200 | ≥ 200 | ≥ 200 | 0.023 | 0.116
